Values of other authors in patent publication US8901128B2, “Pharmaceutical compositions of ranolazine” (Lupin Limited, priority 2009, dated 2014).

Columns and labels:
[1] = tested on: humans suffering from angina; settings: administered as an IR formulation; 120 mg three times daily
[2] = low pH that occurs in the stomach
[3] = in vivo

SMILES: COc1ccccc1OCC(O)CN1CCN(CC(=O)Nc2c(C)cccc2C)CC1 (racemic) [ranolazine, (±)-N-(2,6-dimethylphenyl)-4-[2-hydroxy-3-(2-methoxyphenoxy)-propyl]-1-piperazineacetamide]
- antianginal and anti-ischemic efficacy [1]: ineffective
- solubility [2]: relatively high
- plasma half-life [3]: relatively short
